Where two headings read alike, the source gives them in different places.
Legend:
IMR90 = experiment: Calcein AM viability assay, IMR90; type: cell-based; conditions: IMR-90, normal human fibroblast, 72-hours incubation
Description: (§1) The potency of Cdk inhibitors, as measured by loss of cellular viability, was determined with the Calcein AM assay (Molecular Probes). Calcein AM is a substrate of intracellular esterases, which is cleaved only in viable cells to generate a fluorescent product that can be quantified with a fluorescent plate reader. The fluorescent signal is proportional to the number of viable cells, and thus loss of signal in response to the exposure of cells to Cdk inhibitors correlates with a loss of viability. This assay distinguishes cell cycle arrest from loss of viability and is thus well suited for the evaluation of Cdk inhibitors.
(§2) Cellular IC50's were determined in the human colorectal carcinoma cell line, HCT-116, and the normal human fibroblast, IMR90. Protein adjusted IC50's were also determined in HCT-116. Results are presented in Table 3 below (HCT-116 (viability/protein adjusted) and IMR-90).
(§3) HCT-116 or IMR90 cells were recovered from sub-confluent plates by trypsinization and 1,000 or 4,000 cells, respectively, were plated in 24-well dishes and incubated overnight at 37° C., 5% CO2. HCT-116 cells were cultured in RPMI-1640, 10% FCS, and IMR90 cells were cultured in Minimum Essential Medium-alpha, 10% FCS. After overnight incubation to allow.adlierence, the media was aspirated from each well and replaced with media containing a test compound at a concentration from 0 to 250 nM, spanning a total of 7 doses. The plates were returned to the incubator and cultured for an additional 3 days. […] After 72-hours incubation with the test compound, the cells were washed twice with 1×PBS, talking special care to remove all residual buffer.
(§4) A 5 μM Calcein AM. solution was prepared by dissolving a 50 μg aliquot of Calcein (Molecular Probes catalog # C3100) in 50 μl DMSO. After the Calcein had completely dissolved (10 minutes at room temperature), it was diluted into 10 ml PBS. Calcein/PBS (0.5 ml) was added to each well. The plates were incubated for 75 minutes at 37° C. (protected from light) and the fluorescent signal was read on a fluorescent plate reader (excitation 485/20 and emission 530/25).

[1] = system: NCI panel of 60 cell lines; experiment: NCI panel of human tumor cell lines (SRB assay), MG-MID; type: cell-based; conditions: 48 hours incubation with compound
Source text: (§5) The evaluation of compounds at the National Cancer Institute in their panel of 60 cell lines provides a wealth of information regarding efficacy in a wide range of tumor types and genetic backgrounds. Included within this panel are cell lines derived from leukemia, melanoma and cancers of the lung, colon, brain, ovary, breast, prostate and kidney. Use of this panel provides a measure of the efficacy of compounds in cells with alterations in many genes that are associated with neoplastic transformation including p53 and Her2/Neu as well as those involved in metabolism and those which confer multi-drug resistance. The data generated in these cell lines with the protocol described below can be used to evaluate the activity of compounds.
(§6) Cells were grown in RPMI-1640 10% FCS and plated in 96 well micro-titer plates at densities ranging from 5,000 to 40,000 cells/well. The plates were incubated for 24 hours at 37° C., 5% CO2 for 24 hours. Media containing twice the desired final concentration of the compound (5 doses spanning 4 logs) was prepared and 100 μl was added to each well containing 100 μl media plus cells to yield the desired final concentration. The plates were then incubated for an additional 48 hours.
(§7) The effect of the compound on cellular viability was determined with the Sulforhodamine B (SRB) assay which measures total protein. Cells were fixed with cold TCA to a fmal concentration of 10% and incubated at 4° C. for 60 minutes. The supernatant was discarded and the plates were washed five times with water and air-dried. SRB solution at […] in 1% acetic acid was added to each well and the plates were incubated for 10 minutes at room temperature. The plates were washed five times with 1% acetic acid and air-dried. The bound stain was solubilized with 10 mM trizma base and the absorbance was read on a plate reader at […].

HCT-116 cells [2] = experiment: Clonogenic survival assay with HCT-116 cells; type: cell-based; conditions: Homo sapiens
Description: This assay was used to determine the concentration of a compound that results irreversible loss of viability after a specified period of exposure.
Media (RPMI-1640, 10% FCS, pen/strep) was pre-warnied to 37° C. in a water bath. Cells were incubated and grown at 37° C., 5% CO2. Cells were recovered by trypsinization from sub-confluent plates and counted using a hemocytometer. 1×10^4 cells were plated in 25 mls of media in a 15 cm tissue culture dish. 14 plates were set up for each test compound, and were incubated overnight at 37° C. The compound was diluted into media at 7 concentrations and the media on the cells was replaced with that containing the test compound. Two plates were set up for each concentration of the compound to be tested, as well as two control plates without compound. […] Colonies were stained with crystal violet solution (0.4% crystal violet, 20 % ethanol) for 5 minutes, washed twice with distilled water, and counted.

HCT-116 cells [3] = experiment: BrdU incorporation into DNA (flow cytometry); type: cell-based, human; design: unit not given here; conditions: inhibition of BrdU incorporation, unit not given; for BrdU 72: analysis at 72 hours; for BrdU 24: analysis at 24 hours; for BrdU 48: analysis at 48 hours
Description: This method measured the percentage of cells that incorporated the nucleotide analog, BrdU, into newly synthesized DNA as cells progressed through the S phase of the cell cycle. The inhibition of BrdU incorporation was used as a measure of a Cdlc inhibitor's effect on S phase progression and DNA replication.
3 sets of HCT-116 cells (100,000 cells/set) were plated in T25 flasks and incubated with a test compound as above. Analysis was done at 24, 48, and 72 hours. BrdU was added to each T-25 flask from a stock of 10 mg/ml to a final concentration of 10 μM and the cells were incubated for an additional 16-18 hours at 37° C. The cells were then prepared for flow cytometric analysis according to manufacturer's protocol (BrdU Flow kit, BD-Pharmingen catalogue # 2354KK) as follows:
Cells were harvested (adherent and floating) from the T25 flasks directly into Falcon 12×75 flow cytometric tubes as above followed by fixation and permeabilization with the addition of 100 μl Cytofix/Cytoperm buffer (30 minutes, room temperature). The cells were then washed with 1 ml of Perm Wash buffer and the cell pellets were resuspended in 100 μl Cytoperm Plus buffer and incubated on ice for 10 minutes. The cells were then washed again with 1 ml of Perm Wash buffer and the fixation was repeated in 100 μl of Cytofix/Cyto Perm buffer for 10 minutes at room temperature. The cells were then washed with 1 ml of Perm Wash buffer. The cells were next treated for one hour at 37° C. with 100 μl DNase to expose incorporated BrdU followed by another wash step with 1 ml of Perm Wash buffer. […] Cells were protected from light and incubated at room temperature for 20-30 minutes. Following the incubation, the cells were washed with 1 ml of Perrn Wash buffer, resuspended in 300 μl of 2% FBS in PBS, and analyzed on the flow cytometer.

ADR-res = experiment: NCI panel (SRB assay), ADR-res cell line; type: cell-based, human; conditions: 48 hours incubation with compound, unit not given
Source text: as §5, §6, §7

HCT-116 = experiment: Calcein AM viability assay, HCT-116; type: cell-based, human; conditions: 72-hours incubation
Description: as §1, §2, §3, §4

arrested HCT-116 cells = experiment: Arrested cell assay (serum starvation), HCT-116; type: cell-based, human; design: unit not given here; conditions: serum-starved arrested cells; unit not given
Description: (§8) Cyclin-dependent kinase (Cdk) activity is required to promote the progression of cells through distinct phases of the cell division cycle. The proliferation of normal, non-transformed, cells in culture requires the presence of growth factors, the removal of which, through serum deprivation, leads to a loss of Cdlc activity and consequent exit from the cell cycle as cells enter the quiescent phase, Go.
HCT-116 cells were plated in triplicate for each compound concentration to be tested in RPMI 1640 media containing 10% fetal calf serum at a density of either 200 or 2,000 cells per well in 24 well dishes, and incubated overnight at 37° C., 5% CO2. The media from the plate containing 2,000 cells per well was removed, cells were washed once with serum free media and 1 ml of serum free media was placed on cells. Tle plates containing cells both in the presence and absence of serum were incubated for 6 additional days.
(§9) To ensure that the cells had indeed exited the cell cyde upon serum withdrawal, the percentage of BrdU positive cells, indicative of those progressing through S phase, was determined in each experiment. For the purpose of this experiment, cellular viability was evaluated simultaneously with the use of SNARF-1, a fluorescent substrate of intracellular esterases which are only active in viable cells. Together, the evaluation of BrdU incorporation and SNARF-1 cleavage by flow cytometry provided an assessment of the viability of arrested cells on a single cell basis. For this analysis, the cells were stained with SNARF-1 as follows and then prepared for determination of BrdU incorporation as described above.
(§10) HCT-116 and IMR90 cells were plated at the density described below in T25 flasks in serum-containing media (RPMI-1640 or MEM-a with 10% FCS, respectively). After 24 hours of growth, the media was removed and, after washing the cells, replaced with serum-free media. • HCT-116+FCS 5,000 cells • HCT-116−FCS 100,000 cells • IMR90+FCS 100,000 cells • IMR90−FCS 200,000 cells
(§11) The IMR90 cells were grown for an additional 3 days and the HCT-116 cells were grown for an additional 6 days before pulsing with BrdU. A 50 μg aliquot of SNARF-1 (Molecular Probes catalog #C1272) was dissolved in 50 μl DMSO at room temperature for 10 minutes and then diluted into 10 ml PBS. The SNARF-1 was further diluted 1:64,000 before 200 μl was added to each tube of cells which had been cultured in the presence or absence of serum and pulsed with BrdU for 20 hours. The cells were incubated at 37° C. for 30 minutes and then washed with 3 ml of PBS.
(§12) These cells were then fixed and prepared for the measurement of BrdU incorporation as described above. The percentage of viable (FL-2) and BrdU positive (FL-1) cells was determined on a FACScan flow cytometer.

arrested IMR90 cells = experiment: Arrested cell assay (serum starvation), IMR90; type: cell-based, human; design: unit not given here; conditions: serum-starved arrested cells; unit not given
Description: as §8
IMR90 cells were plated in triplicate for each compound concentration to be tested in MEM-α media containing 10% fetal calf serum at a density of either 2,000 or 20,000 cells per well in 24-well dishes and incubated overnight at 37° C., 5% CO2. The media was removed from the 20,000 cell-per-well dish, cells were washed once with serum-free media, and serum-fiee media was placed on cells. The plates containing cells both in the presence and absence of serum were incubated for 3 additional days.
as §9, §10, §11, §12

[4] = Homo sapiens, RPMI-1640 10% FCS, read-out: HCT-116 IC50 viability
[5] = 24 h exposure, read-out: HCT-116 IC50 clonogenic 24 h
[6] = plus 1 mg/ml alpha acidic glycoprotein and 45 mg/ml human serum albumin, read-out: HCT-116 IC50 protein adjusted

Row | SMILES | IC50 (IMR90) | NCI panel MG-MID [1] | IC50 (HCT-116 cells [2]; 48 h exposure, read-out: HCT-116 IC50 clonogenic 48 h) | IC50 (HCT-116 cells [2]; 72 h exposure, read-out: HCT-116 IC50 clonogenic 72 h) | BrdU 72 (HCT-116 cells [3]) | NCI panel ADR-res (ADR-res) | IC50 (HCT-116; [4]) | IC50 (HCT-116 cells [2]; [5]) | Arrested cell HCT (arrested HCT-116 cells) | Arrested cell IMR90 (arrested IMR90 cells) | BrdU 24 (HCT-116 cells [3]) | BrdU 48 (HCT-116 cells [3]) | IC50 (HCT-116; [6])
1 | CC(C)c1nn(-c2c(Cl)cc(Cl)cc2Cl)c2nc(Cc3ccc(OCCN4CCOCC4)cc3)[nH]c(=O)c12.Cl [A] | < 100 nM | <0.1 µM | < 100 nM | < 100 nM | <0.1 | <1 | < 100 nM |  |  |  |  |  | 
2 | Cc1cc(-c2[nH]nc3c2C(=O)c2c(NC(=O)NN4CCN(C)CC4)cccc2-3)ccc1OCCN1CCCC1 [Compound P] | < 100 nM |  |  |  |  |  | < 10 nM | < 100 nM |  |  |  |  | 
3 | CC(C)c1nn(-c2c(Cl)cc(Cl)cc2Cl)c2nc(Cc3ccc(NS(=O)(=O)CCCN4CCOCC4)cc3)[nH]c(=O)c12.Cl [D] | < 10 nM |  |  |  | <0.1 |  |  |  | <0.01 | >1.0 | <0.1 | <0.1 | 
4 | Cc1cc(OCCN2CCCC2)ccc1-c1[nH]nc2c1C(=O)c1c(NC(=O)NN3CCN(C)CC3)cccc1-2.Cl.Cl.Cl [L] | > 100 nM | >10 µM |  |  | <0.1 | >10 |  |  |  |  | <0.1 | <0.1 | < 1000 nM
5 | CN1CCN(NC(=O)Nc2cccc3c2C(=O)c2c-3n[nH]c2-c2ccc(OCCN3CCC[C@H]3CO)cc2)CC1.Cl.Cl.Cl [M] | < 100 nM |  |  |  | <0.1 |  |  |  | <0.1 | >1.0 | <0.1 | <0.1 | < 1000 nM
6 | CN1CCN(NC(=O)Nc2cccc3c2C(=O)c2c-3n[nH]c2-c2ccc(OCCN(CCO)CCO)cc2)CC1 [N] | > 100 nM |  |  |  |  |  | < 1000 nM |  |  |  |  |  | < 1000 nM
7 | CN1CCN(NC(=O)Nc2cccc3c2C(=O)c2c-3n[nH]c2-c2ccc(OCCN3CC[C@H](O)C3)cc2)CC1.Cl.Cl.Cl [O] | < 100 nM |  |  |  | <1 |  |  | < 10 nM | <0.1 | >0.1 | <0.1 | <1 | 
